Laboratory results published in US20260306641A1, “HELICASE DEGRADERS” (priority 2023, published 2026).

What was measured:
[1] = tested on: T1, human CMG helicase (hCMG); test: hCMG helicase fork-unwinding (strand displacement) assay; type: biochemical; conditions: for inhibition of hCMG helicase activity, SAR set: 500 μM compound
T1 construct: made in house; host or cells: High Five insect cells, baculovirus (11 viruses co-infected)
Procedure: The human CMG helicase was purified following the established and validated protocol of Hurwitz and colleagues(19,20), with minor modifications. A detailed description of the approach is shown here, to allow for comparisons to the methods described by the Hurwitz group.
High Five insect cells (2-3 million cells/ml, 1.5 L), were in cultured in a shaking incubator at 27° C. in suspension with ESF921 serum free medium (Expression Systems, CA; cat. #96-001-01), then co-infected for 60 hrs with 11 baculoviruses expressing human 6His2Flag-Cdc45, the human MCM hexamer (Mcm2, Mcm3, Mcm4, Mem5, Mcm6, Mcm7), and human GINS (GST-Sld5, Psf3, Psf2, and Psf1). Each virus was infected at an MOI of ~10 from individual virus stocks. Infected cells were harvested by centrifugation at 650×g for 5 min at 4° C., washed with cold PBS, frozen on dry ice, and stored at −80° C. until use. The cell pellet (~20 mL) was thawed on ice, resuspended in 45 ml Hypotonic Buffer [20 mM Hepes-NaOH (pH 7.5), 5 mM KCl, 1.5 mM MgCl2] with protease inhibitors (1 mM [COMPOUND LEFT OUT], 1 mM Benzamidine, 0.15 μM Aprotinin, 4 μM Leupeptin, and 1 μM Antipain), and kept on ice for 10 min before lysing by Dounce homogenization (tight fitting, 60 strokes). The cell extract was adjusted to 0.42 M potassium acetate and centrifuged at 43,000×g for 1 hr at 4° C. The cleared lysate was mixed with 0.75 ml glutathione beads (cat. #17-0756-05; GE Healthcare) pre-equilibrated with FEQ buffer [20 mM Hepes-NaOH (pH 7.5), 0.42 M potassium acetate, 5 mM KCl, 1.5 mM MgCl2] and incubated by rotation at 4° C. overnight. Following centrifugation at 290×g at 4° C., the bound glutathione beads were washed four times (15 min each wash) with 40 ml of FW buffer [20 mM Hepes-NaOH (pH 7.5), 0.42 M potassium acetate, 1 mM DTT, 1 mM EDTA, 0.01% NP40, 10% glycerol (vol/vol) with protease inhibitors as above] containing protease inhibitors (as above). Bound proteins were eluted at 4° C. three times (1 hr each elution) with 3.5 ml Q buffer [20 mM Hepes-NaOH (pH 7.5), 1 mM DTT, 1 mM EDTA, 0.01% NP40, 10% glycerol (vol/vol), and protease inhibitors as above] containing 0.15 M potassium acetate and 20 mM reduced glutathione. The eluted fractions were combined and applied to a HiTrap Q-Sepharose FF column (HiTrap Q FF 1 mL, cat. #17505301, Cytiva), pre-equilibrated 3× with 5 ml of Q buffer containing 0.15 M, 0.75 M, 0.15M potassium acetate, in sequence. The Q-Sepharose FF column was washed with 10 ml of FW buffer containing protease inhibitors (as above). The proteins were eluted with 10 ml of Q buffer containing 0.75 M potassium acetate. The eluted fraction was mixed with 0.15 ml of anti-Flag M2 affinity gel/beads and incubated while rotating at 4° C. overnight. After centrifugation at 290×g for 5 min at 4° C., the beads were washed three times with 10 ml PreScission buffer [50 mM Tris-HCl (pH 7.5), 0.15 M NaCl, 1 mM DTT, 1 mM EDTA] for 15 min at 4° C., and eluted at 4° C. three times (1 hr each elution) with 0.2 ml PreScission enzyme buffer containing 0.2 mg/ml 3×-Flag peptides. The combined eluates were incubated with 20 Units of PreScission Protease (GE Healthcare) and 0.1 mL glutathione beads for 4 hr at 4° C. The supernatant was layered onto a 15-40% glycerol gradient [25 mM Tris-HCl (pH 7.5), 50 mM NaCl, 1 mM DTT, 1 mM EDTA, 0.01% NP40, protease inhibitors as above] in a 5 mL ultra-centrifugation tube and centrifuged at 260,000×g for 14 hr at 4° C. Glycerol fractions (0.15 mL each fraction) were collected from bottom of tube and stored at −80° C. until use. Typically, fractions 6-9 contained complete hCMG (~750-800 kDa) and co-migrated with thyroglobulin.
Helicase fork-unwinding assays were performed at 37° C. for 1 hr in 20 μL reaction volumes using 2-4 μl of hCMG (~15-30 fmol), in a buffer consisting of 25 mM Hepes-NaOH (pH 7.5), 5 mM NaCl, 0.5 mM ATP, 10 mM magnesium acetate, 1 mM DTT, 0.1 mg/ml bovine serum albumin (BSA), and ~10 fmol of radiolabeled DNA forks (20). […]

[2] = tested on: T1, human CMG helicase (hCMG); test: hCMG ATPase activity, FP ADP^2 Transcreener assay; type: biochemical; conditions: role: product, 15 fmol hCMG, 500 μM ATP
Procedure: The fluorescent-polarization (FP) ADP-sensing assays were performed using the Transcreener® ADP^2 FP assay kit (cat #3010-1K, Bellbrook Labs). For hCMG inhibitor screening, assays were performed at 37° C. for 1 hr in 10 μl reactions in a 384-well plate (cat. #4514, Corning) using 2 μL of hCMG (~15 fmol), 25 mM Hepes-NaOH (pH 7.5), 10 mM NaCl, 0.5 mM ATP, 10 mM magnesium acetate, 1 mM DTT, 0.1 mg/ml BSA, and DNA fork substrates. […] Selected inhibitors or samples from a chemical library were added into the reactions when conducting the screening or testing inhibitor effectiveness. The NCI Diversity Set VI chemical library was obtained from the National Cancer Institute (Bethesda, MD).
The window of sensitivity for the ADP-sensing assays is determined by setting up two 10 μL control samples without any added hCMG helicase: a Low-FP mixture (4 nM ADP Alexa Fluor-633 Tracer alone) and a High-FP mixture (4 nM ADP Alexa Fluor-633 Tracer plus patented anti-ADP^2 Antibody). The amount of ADP^2 Antibody used had to be adjusted to account for the use of 500 μM ATP in our hCMG assays, versus 10 μM ATP in enzyme reactions typically assessed with standard kits prepared by BellBrook Labs. […] This was done according to the manufacturer by performing a titration with increasing ADP^2 Antibody, fixed 4 nM ADP Alexa Fluor-633 Tracer, and 500 μM ATP to determine the ~EC80-85 for millipol (mP) changes, which determined the optimal ADP^2 Antibody concentration to use as 0.64 mg/ml (FIG. 9A). Samples are read with a Perkin Elmer Envision II plate reader with optimized Cy5 (far-red) FP-compatible mirror and cubes (cat #2100-8390, Perkin Elmer). The Low-FP sample is the least polarized and gives a low mP reading, while the High-FP sample is the most polarized and gives the highest mP reading. The difference between the Low-FP and High-FP values defines the FP assay window, which is normally in a range of 150-200 mP under ideal conditions for screening purposes. The hCMG helicase hydrolyzes ATP to ADP and decreases the mP reading within this window, with an ideal change (ΔmP) in the FP window of at least 50% to be in a readable range for inhibitor screening (as per manufacturer). Potential hCMG chemical inhibitors reverse this effect and cause the mP readings to increase.
We performed a titration with increasing and decreasing concentrations of ADP and ATP, respectively, to assess the sensitivity of the FP assay in detecting ADP production (FIG. 9B). Consistent with the stated manufacturer predictions, the assay can reliably detect 1-3% changes in ADP production (i.e., 5-15 μM ADP production) in starting concentrations of ATP of 500 μM, with a Z′ efficiency between 0.6-0.8 (determined following manufacturer protocols).
Once the hCMG enzyme reactions are complete, 10 μL of 1× Stop Solution and Detection Buffer (buffer from BellBrook Labs; containing 4 nM ADP Alexa Fluor-633 Tracer plus ADP^2 Antibody) are added to each reaction, and to the High-FP control. The Low-FP control receives 10 μL of 1× Stop Solution and Detection Buffer containing only 4 nM ADP Alexa Fluor-633 Tracer (no Antibody). Samples are incubated at 25° C. for 1 hr, then read in the plate reader. […] Plate readings from these tests of potential positive hits should be similar to that seen with the Low-FP control, or such hits may instead be false-positives.

HaCaT cells = test: BrdU labeling of DNA replication in synchronized HaCaT cells; type: cell-based, human; conditions: treated at 18 hrs, analyzed 3 hrs later; CA1/novobiocin 15 μM, etoposide 5 μM
Procedure: Verification of synchronization and determination of drug effects was performed by measuring the incorporation of bromo-deoxyuridine (BrdU) into replicating foci within nuclei. At times indicated, cells were pulse-labeled with 15 μM BrdU for 30 min, fixed with 4% paraformaldehyde, and analyzed by standard immunofluorescent techniques(40,51) with an anti-BrdU monoclonal antibody (Roche, clone no. BMC9318, RRID:AB_2313622). The average counts of three fields of 100 or more cells were used to determine the percentages of BrdU-labeled nuclei, +/−1 s.d.

[3] = tested on: MCM/CMG and replisome proteins in HaCaT cells; test: Immunoblots of chromatin-bound or total proteins, synchronized HaCaT cells; type: cell-based, human; conditions: S-phase cells; etoposide 5 μM

T1 sequence (P49736 whole entry): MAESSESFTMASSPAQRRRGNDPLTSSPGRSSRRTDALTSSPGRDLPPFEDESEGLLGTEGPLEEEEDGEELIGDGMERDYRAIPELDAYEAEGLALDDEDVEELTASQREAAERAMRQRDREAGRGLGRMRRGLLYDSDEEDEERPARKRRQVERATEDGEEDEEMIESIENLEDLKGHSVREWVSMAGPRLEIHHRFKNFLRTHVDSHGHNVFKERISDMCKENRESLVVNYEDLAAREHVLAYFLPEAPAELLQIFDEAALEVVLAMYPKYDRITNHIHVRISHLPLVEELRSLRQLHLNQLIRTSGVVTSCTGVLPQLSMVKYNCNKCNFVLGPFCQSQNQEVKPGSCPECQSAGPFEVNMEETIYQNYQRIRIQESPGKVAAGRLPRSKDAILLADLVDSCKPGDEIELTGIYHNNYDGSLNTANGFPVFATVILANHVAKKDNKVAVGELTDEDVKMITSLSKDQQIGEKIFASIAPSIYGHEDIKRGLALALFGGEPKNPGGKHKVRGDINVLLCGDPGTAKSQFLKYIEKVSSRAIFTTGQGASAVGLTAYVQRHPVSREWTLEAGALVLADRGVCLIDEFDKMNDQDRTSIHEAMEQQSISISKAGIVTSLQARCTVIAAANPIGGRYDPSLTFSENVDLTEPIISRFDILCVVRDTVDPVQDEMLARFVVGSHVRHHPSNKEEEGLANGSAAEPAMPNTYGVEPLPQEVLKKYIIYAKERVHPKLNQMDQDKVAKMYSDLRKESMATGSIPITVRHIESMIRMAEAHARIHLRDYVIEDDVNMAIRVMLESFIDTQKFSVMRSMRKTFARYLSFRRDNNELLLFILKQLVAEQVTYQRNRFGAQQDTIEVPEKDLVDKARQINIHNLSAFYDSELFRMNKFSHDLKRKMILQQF
T1 sequence (P25205 whole entry, further chain): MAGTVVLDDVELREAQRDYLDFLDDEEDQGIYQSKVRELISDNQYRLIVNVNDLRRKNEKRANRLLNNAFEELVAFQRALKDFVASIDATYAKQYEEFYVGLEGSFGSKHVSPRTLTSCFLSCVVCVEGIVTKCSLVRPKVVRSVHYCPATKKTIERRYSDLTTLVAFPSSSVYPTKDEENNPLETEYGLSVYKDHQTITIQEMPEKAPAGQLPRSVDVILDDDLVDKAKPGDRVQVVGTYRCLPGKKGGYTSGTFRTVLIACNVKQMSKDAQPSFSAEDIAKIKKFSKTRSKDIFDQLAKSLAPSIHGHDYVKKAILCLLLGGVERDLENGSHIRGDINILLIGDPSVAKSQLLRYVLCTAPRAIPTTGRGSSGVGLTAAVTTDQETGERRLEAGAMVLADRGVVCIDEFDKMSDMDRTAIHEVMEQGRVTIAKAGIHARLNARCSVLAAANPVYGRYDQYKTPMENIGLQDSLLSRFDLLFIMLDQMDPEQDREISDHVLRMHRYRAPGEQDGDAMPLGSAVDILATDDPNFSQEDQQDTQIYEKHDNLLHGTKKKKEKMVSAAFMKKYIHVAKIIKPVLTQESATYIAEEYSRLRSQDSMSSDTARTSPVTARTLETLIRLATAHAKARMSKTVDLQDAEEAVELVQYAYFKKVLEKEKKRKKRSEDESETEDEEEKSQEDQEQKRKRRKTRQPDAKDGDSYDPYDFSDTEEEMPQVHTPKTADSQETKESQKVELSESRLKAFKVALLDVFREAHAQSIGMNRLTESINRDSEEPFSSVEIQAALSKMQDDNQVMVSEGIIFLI
T1 sequence (P33991 whole entry, further chain): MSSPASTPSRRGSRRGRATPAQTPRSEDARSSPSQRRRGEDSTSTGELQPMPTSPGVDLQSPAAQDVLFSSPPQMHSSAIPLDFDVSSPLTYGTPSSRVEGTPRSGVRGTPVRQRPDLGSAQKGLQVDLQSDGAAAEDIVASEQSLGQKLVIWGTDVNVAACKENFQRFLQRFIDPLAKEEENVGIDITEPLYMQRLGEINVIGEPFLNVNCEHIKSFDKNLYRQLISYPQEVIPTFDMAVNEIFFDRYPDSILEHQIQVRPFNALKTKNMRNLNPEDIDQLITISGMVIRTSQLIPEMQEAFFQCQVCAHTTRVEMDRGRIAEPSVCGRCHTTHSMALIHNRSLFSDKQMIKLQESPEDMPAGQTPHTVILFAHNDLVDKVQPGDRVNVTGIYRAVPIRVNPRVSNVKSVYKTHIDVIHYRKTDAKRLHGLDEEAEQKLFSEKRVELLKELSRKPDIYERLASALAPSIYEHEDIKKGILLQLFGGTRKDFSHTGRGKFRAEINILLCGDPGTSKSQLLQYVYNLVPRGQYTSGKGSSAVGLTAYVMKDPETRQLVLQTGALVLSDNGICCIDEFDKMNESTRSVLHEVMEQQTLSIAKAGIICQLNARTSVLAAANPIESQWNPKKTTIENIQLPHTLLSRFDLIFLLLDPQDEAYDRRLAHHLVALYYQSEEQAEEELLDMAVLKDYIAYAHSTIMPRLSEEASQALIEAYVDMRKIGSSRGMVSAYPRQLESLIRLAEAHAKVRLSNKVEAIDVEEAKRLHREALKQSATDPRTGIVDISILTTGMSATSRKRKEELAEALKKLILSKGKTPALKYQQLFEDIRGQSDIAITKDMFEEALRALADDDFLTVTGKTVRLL
T1 sequence (P33992 whole entry, further chain): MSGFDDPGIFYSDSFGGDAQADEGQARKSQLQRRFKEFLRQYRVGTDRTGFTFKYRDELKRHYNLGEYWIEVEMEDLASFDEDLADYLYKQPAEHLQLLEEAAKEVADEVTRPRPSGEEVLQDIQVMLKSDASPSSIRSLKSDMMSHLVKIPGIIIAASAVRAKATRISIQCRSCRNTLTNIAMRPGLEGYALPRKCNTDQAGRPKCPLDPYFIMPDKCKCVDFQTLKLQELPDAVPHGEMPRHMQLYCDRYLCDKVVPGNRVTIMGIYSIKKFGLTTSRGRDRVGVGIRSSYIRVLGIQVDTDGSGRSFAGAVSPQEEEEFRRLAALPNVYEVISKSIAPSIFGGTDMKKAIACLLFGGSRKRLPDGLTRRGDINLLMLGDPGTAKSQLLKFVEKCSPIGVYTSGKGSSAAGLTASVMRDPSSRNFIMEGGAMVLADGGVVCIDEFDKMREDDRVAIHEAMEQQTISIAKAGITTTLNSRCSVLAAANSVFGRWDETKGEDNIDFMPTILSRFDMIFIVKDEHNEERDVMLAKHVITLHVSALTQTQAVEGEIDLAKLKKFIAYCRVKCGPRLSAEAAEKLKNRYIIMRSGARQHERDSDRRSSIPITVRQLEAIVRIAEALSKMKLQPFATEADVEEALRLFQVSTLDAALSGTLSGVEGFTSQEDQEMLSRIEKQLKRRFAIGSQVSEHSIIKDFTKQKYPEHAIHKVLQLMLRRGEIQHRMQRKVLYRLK
T1 sequence (Q14566 whole entry, further chain): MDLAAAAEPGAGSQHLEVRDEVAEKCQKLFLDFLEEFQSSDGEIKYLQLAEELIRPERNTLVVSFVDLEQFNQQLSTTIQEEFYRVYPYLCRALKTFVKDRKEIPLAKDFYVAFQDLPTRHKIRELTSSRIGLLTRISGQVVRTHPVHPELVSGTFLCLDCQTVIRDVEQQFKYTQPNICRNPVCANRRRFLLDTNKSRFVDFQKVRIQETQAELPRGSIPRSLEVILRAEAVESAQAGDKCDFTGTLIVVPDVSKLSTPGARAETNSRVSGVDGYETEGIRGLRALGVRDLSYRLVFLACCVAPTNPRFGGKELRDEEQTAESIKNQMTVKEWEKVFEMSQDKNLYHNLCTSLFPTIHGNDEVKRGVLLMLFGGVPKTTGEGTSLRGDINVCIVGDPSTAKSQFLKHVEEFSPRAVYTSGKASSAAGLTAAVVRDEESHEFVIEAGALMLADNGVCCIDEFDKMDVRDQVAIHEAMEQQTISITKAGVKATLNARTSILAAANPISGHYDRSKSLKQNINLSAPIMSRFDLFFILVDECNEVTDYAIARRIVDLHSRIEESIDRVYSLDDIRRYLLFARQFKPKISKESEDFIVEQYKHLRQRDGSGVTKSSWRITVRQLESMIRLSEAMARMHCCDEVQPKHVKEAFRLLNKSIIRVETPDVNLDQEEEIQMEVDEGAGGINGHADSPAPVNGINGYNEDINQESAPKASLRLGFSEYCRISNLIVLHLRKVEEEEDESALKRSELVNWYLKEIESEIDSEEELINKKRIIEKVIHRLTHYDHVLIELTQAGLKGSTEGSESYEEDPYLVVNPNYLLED
T1 sequence (P33993 whole entry, further chain): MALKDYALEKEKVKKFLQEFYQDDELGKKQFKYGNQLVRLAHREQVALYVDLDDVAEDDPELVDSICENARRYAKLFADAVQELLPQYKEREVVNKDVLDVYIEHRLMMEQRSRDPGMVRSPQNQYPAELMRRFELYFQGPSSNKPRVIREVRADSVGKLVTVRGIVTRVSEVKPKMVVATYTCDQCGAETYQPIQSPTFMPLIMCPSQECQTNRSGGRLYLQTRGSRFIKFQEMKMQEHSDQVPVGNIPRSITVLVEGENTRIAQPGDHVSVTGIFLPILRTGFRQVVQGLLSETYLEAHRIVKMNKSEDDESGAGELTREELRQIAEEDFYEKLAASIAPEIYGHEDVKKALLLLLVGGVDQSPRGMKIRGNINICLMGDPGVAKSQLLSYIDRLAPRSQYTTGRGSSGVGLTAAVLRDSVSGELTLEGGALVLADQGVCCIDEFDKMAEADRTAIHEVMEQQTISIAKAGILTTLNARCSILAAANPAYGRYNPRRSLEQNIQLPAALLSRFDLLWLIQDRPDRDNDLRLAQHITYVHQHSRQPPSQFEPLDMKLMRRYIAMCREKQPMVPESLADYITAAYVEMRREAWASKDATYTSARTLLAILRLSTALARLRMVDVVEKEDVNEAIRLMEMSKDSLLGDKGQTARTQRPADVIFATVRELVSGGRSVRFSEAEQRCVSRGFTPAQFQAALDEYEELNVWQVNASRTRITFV

O=C(O)c1cn(C2CC2)c2cc(N3CCNCC3)c(F)cc2c1=O [ciprofloxacin] was tested, and the “hCMG helicase inhibition by quinolones” value ([1]; 100 μM or 1000 μM) was “do not inhibit the purified hCMG helicase”.
For CO[C@@H]1[C@@H](O)[C@@H](O)[C@H](Oc2ccc3c(O)c(NC(=O)c4ccc(O)c(CC=C(C)C)c4)c(=O)oc3c2C)OC1(C)C [MBC-D3, N-(7-(((2R,3R,4S,5R)-3,4-Dihydroxy-5-methoxy-6,6-dimethyltetrahydro-2H-pyran-2-yl)oxy)-4-hydroxy-8-methyl-2-oxo-2H-chromen-3-yl)-4-hydroxy-3-(3-methylbut-2-en-1-yl)benzamide], the “inhibition of hCMG helicase activity, SAR set” value (“inhibition … SAR set” for short) [1] was “this inhibition of the hCMG is diminished when the noviose sugar is added”.
For CO[C@@H]1[C@@H](OC(=O)c2ccc(C)[nH]2)[C@@H](O)C(O)OC1(C)C (mixture of isomers) [MBC-D1, (3R,4S,5R)-5,6-Dihydroxy-3-methoxy-2,2-dimethyltetrahydro-2H-pyran-4-y 5-methyl-1H-pyrrole-2-carboxylate], the “inhibition … SAR set” value [1] was “only a small level of inhibition”.
With Nc1ncnc2c1ncn2[C@@H]1O[C@H](COP(=O)(O)OP(=O)(O)OP(O)(O)=S)[C@@H](O)[C@H]1O [ATP-γ-S] the “suppression of fork-unwinding activity” value ([1]; 500 μM ATP, increasing ATP-gamma-S) was “dose-dependent suppression of fork-unwinding activity”.
For Nc1ncnc2c1ncn2[C@@H]1O[C@H](COP(=O)(O)OP(=O)(O)O)[C@@H](O)[C@H]1O [ADP], the “ADP conversion rate by the hCMG” value [2] was ~ 1.5% and the “production of ADP” value ([2]; 10 μL reaction, 1 hr) was 7 to 8 µM.
With CC(C)=CCc1cc(C(=O)Nc2c(O)c3ccc(O)c(C)c3oc2=O)ccc1O [MBC-D2, N-(4,7-Dihydroxy-8-methyl2-oxo-2H-chromen-3-yl)-4-hydroxy-3-(3-methylbut-2-en-1-yl)benzamide] the “inhibition … SAR set” value [1] was “somewhat effective at inhibiting the hCMG”.
CO[C@@H]1[C@@H](OC(=O)c2ccc(C)[nH]2)[C@@H](O)[C@H](Oc2ccc3c(O)c(NC(=O)c4ccc(O)c(CC=C(C)C)c4)c(=O)oc3c2C)OC1(C)C [MBC, (3R,4S,5R,6R)-5-Hydroxy-6-((4-hydroxy-3-(4-hydroxy-3-(3-methylbut-2-en-1-yl)benzamido)-8-methyl-2-oxo-2H-chromen-7-yl)oxy)-3-methoxy-2,2-dimethyltetrahydro-2H-pyran-4-yl] was tested, and the IC50 ([1]; fork-unwinding, read-out: IC50 for hCMG helicase inhibition) was about 59 µM.
“(3R,4S,5R,6R)-5-Hydroxy-6-((4-hydroxy-3-(4-hydroxy-3-(3-methylbut-2-en-1-yl)benzamido)-8-methyl-2-oxo-2H-chromen-7-yl)oxy)-3-methoxy-2,2-dimethyltetrahydro-2H-pyran-4-yl [MBC]” was tested, and the “inhibition … SAR set” value [1] was “potently inhibit the hCMG”.
With COc1cc([C@@H]2c3cc4c(cc3[C@@H](O[C@@H]3O[C@@H]5CO[C@@H](C)O[C@H]5[C@H](O)[C@H]3O)[C@H]3COC(=O)[C@H]23)OCO4)cc(OC)c1O [etoposide] the “DNA replication (BrdU), early S-phase treatment” value (HaCaT cells) was “effectively suppressed DNA replication”, the “hCMG helicase inhibition by etoposide” value ([1]; fork-unwinding) was “does not inhibit hCMG activity” and the “hCMG helicase inhibition by etoposide” value ([1]; fork-unwinding, listed as Etoposide) was “no effect on hCMG helicase activity in vitro”. The “DNA polymerases-a and -d on chromatin” value [3] was “small change” and the “replisome components or RPA on chromatin” value [3] was “does not significantly diminish replisome components or RPA on chromatin”.
